Laboratory results: article PMC7717600, “Novel [(N-alkyl-3-indolylmethylene)hydrazono]oxindoles arrest cell cycle and induce cell apoptosis by inhibiting CDK2 and Bcl-2: synthesis, biological evaluation and in silico studies” (Journal of Enzyme Inhibition and Medicinal Chemistry, 2020)
Like-named read-outs stand apart in the source and are kept apart here.

Experiments:
HOP-92 = assay: cells; conditions: Homo sapiens
NCI/ADR-RES = assay: cells; conditions: Homo sapiens
HCT-15 = assay: cells; conditions: Homo sapiens
SNB-75 = assay: cells; conditions: Homo sapiens
K-562 = assay: cells; conditions: Homo sapiens
HT29 = assay: cells; conditions: Homo sapiens
SF-268 = assay: cells; conditions: Homo sapiens
A549/ATCC = assay: cells; conditions: Homo sapiens
HL-60(TB) = assay: cells; conditions: Homo sapiens
T-47D = assay: cells; conditions: Homo sapiens, T47D
OVCAR-4 = assay: cells; conditions: Homo sapiens
SF-295 = assay: cells; conditions: Homo sapiens
HCT-116 = assay: cells; conditions: Homo sapiens
IGROV1 = assay: cells; conditions: Homo sapiens
HS 578T = assay: cells; conditions: Homo sapiens
Bcl-2 = Bcl-2 (Homo sapiens, UniProt P10415); assay: Bcl-2 inhibitory activity; format: biochemical; conditions: Bcl-2, mean ± SE of three
Chain of Bcl-2 (P10415 whole entry): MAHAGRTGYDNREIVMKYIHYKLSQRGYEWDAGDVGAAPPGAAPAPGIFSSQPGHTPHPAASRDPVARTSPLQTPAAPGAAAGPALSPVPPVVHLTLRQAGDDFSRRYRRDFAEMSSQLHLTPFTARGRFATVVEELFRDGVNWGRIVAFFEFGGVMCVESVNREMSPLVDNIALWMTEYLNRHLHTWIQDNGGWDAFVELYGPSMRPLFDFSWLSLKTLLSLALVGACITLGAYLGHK
Procedure: These assays were carried out as reported earlier[38]^,[39].

[1] = test system: breast T-47D cancer cells; assay: Annexin V-FITC/PI apoptosis assay; format: cell-based, human
Source text: In an attempt to further investigate whether the antiproliferative activity for conjugate 8a is harmonious with the apoptosis induction within T-47D cells pointed out by the increased cell population in sub-G1 phase in 8a-treated T-47D cells (Figure 3), Annexin V-FITC/PI dual staining analysis was used for the apoptosis assay (Figure 4).
Phosphatidylserine externalisation effect of conjugate 8a over breast T-47D cancer cell line was investigated using Annexin-V-FITC Apoptosis Detection Kit by flow cytometry, as described earlier.
4.2.4. Cell Cycle Analysis
Subsequently, the treated cells
Annexin V-FITC Apoptosis Assay
period of 30 min at 4 °C.
Technologies, Darmstadt, Germany).
μl PEG20.000). […] H3PO4. Aliquots were […]

OVCAR-8 = assay: cells; conditions: Homo sapiens
TK-10 = assay: cells; conditions: Homo sapiens
SR = assay: cells; conditions: Homo sapiens
[2] = test system: panel of 59 human cancer cell lines; assay: NCI screening, panel and subpanel summaries; conditions: for GI50: Homo sapiens
Procedure: GI50 values reflect the level for growth inhibitory effect, whereas TGI represents cytostatic impact. In addition, LC50 parameter is considered to be the cytotoxicity parameter for the examined hybrid.
Furthermore, dividing the full-panel MG-MID (µM) for the examined derivative by its individual subpanel MG-MID (µM) provides an index which is regarded as a measure for its selectivity.
The NCI-USA anticancer screening was carried out following the NCI, Bethesda, Drug Evaluation Branch protocol[22–24], utilising the SRB protein assay[21], as reported earlier[34]^,[35].
NCI-in vitro antitumor activity towards 59 cancer cell lines
The cytotoxicity assays were performed at National Cancer Institute (NCI), Bethesda, USA (against 59 cell lines). The human tumor cell lines of the cancer screening panel were grown in
screening experiment, cells were inoculated into 96 well microtiter plates in 100 µ at plating densities ranging from 5000 to 40,000 cells/well depending on the doubling time of individual
and 100% relative humidity for 24 h prior to addition of experimental drugs. After 24 h, two
plates of each cell line were fixed in situ with trichloroacetic acid (TCA), to represent a
measurement of the cell population for each cell line at the time of drug addition (Tz).
Experimental drugs were solubilized in dimethyl sulfoxide at 400-fold the desired final
maximum test concentration and stored frozen prior to use. At the time of drug addition, an
aliquot of frozen concentrate was thawed and diluted to twice the desired final maximum test
concentration with complete medium containing 50 µg/ml gentamicin. Additional four, 10-fold
or ½ log serial dilutions were made to provide a total of five drug concentrations plus control.
Aliquots of 100 µl of these different drug dilutions were added to the appropriate microtiter wells
already containing 100 µl of medium, resulting in the required final drug concentrations.
Triplicate wells were prepared for each individual dose. Following drug addition, the plates were

SW-620 = assay: cells; conditions: Homo sapiens
UACC-62 = assay: cells; conditions: Homo sapiens
MDA-MB-231/ATCC = assay: cells; conditions: Homo sapiens
OVCAR-5 = assay: cells; conditions: Homo sapiens
EKVX = assay: cells; conditions: Homo sapiens
MOLT-4 = assay: cells; conditions: Homo sapiens
SF-539 = assay: cells; conditions: Homo sapiens
NCI-H23 = assay: cells; conditions: Homo sapiens
KM12 = assay: cells; conditions: Homo sapiens

SMILES: CCCn1cc(C=NN=C2C(=O)Nc3ccc(C)cc32)c2ccccc21 [Compound 8a]
- GI50 (HOP-92; HOP-92): 1870 nM
- CC50 (HOP-92; HOP-92, read-out: LC50): > 100 µM
- GI50 (NCI/ADR-RES): 6.39 µM
- CC50 (NCI/ADR-RES; read-out: LC50): > 100 µM
- GI50 (HCT-15; HCT-15): 2630 nM
- CC50 (HCT-15; HCT-15, read-out: LC50): > 100 µM
- GI50 (SNB-75; SNB-75): 2310 nM
- CC50 (SNB-75; SNB-75, read-out: LC50): > 100 µM
- GI50 (K-562; K562): 2220 nM
- CC50 (K-562; K562, read-out: LC50): > 100 µM
- GI50 (HT29; HT-29): 3.4 µM
- CC50 (HT29; HT-29, read-out: LC50): > 100 µM
- GI50 (SF-268; SF-268): 3.33 µM
- CC50 (SF-268; SF-268, read-out: LC50): > 100 µM
- GI50 (A549/ATCC; A549): 7.18 µM
- CC50 (A549/ATCC; A549, read-out: LC50): > 100 µM
- GI50 (HL-60(TB); HL-60): 1310 nM
- CC50 (HL-60(TB); HL-60, read-out: LC50): > 100 µM
- GI50 (T-47D; T-47D): 416 nM
- CC50 (T-47D; read-out: LC50): > 100 µM
- GI50 (OVCAR-4; OVCAR-4, OVCAR-4): 935 nM
- CC50 (OVCAR-4; OVCAR-4, read-out: LC50): > 100 µM
- GI50 (SF-295; SF-295): 8.41 µM
- CC50 (SF-295; SF-295, read-out: LC50): > 100 µM
- GI50 (HCT-116; HCT-116): 1750 nM
- CC50 (HCT-116; HCT-116, read-out: LC50, HCT-116): 19 µM
- GI50 (IGROV1; IGROV-1): 3.38 µM
- CC50 (IGROV1; IGROV-1, read-out: LC50): > 100 µM
- GI50 (HS 578T): 11.3 µM
- CC50 (HS 578T; read-out: LC50): > 100 µM
- IC50 (Bcl-2): 460 ± 20 nM
- apoptotic cells, early apoptotic phase ([1]; control 0.26%): 4.82%
- apoptotic cells, late apoptotic phase ([1]; control 0.47%): 14.62%
- increase in total apoptosis ([1]; vs untreated control): about 26 fold
- GI50 (OVCAR-8; OVCAR-8): 5.41 µM
- CC50 (OVCAR-8; OVCAR-8, read-out: LC50): > 100 µM
- GI50 (TK-10; TK-10): 11.1 µM
- CC50 (TK-10; TK-10, read-out: LC50): > 100 µM
- GI50 (SR): 521 nM
- CC50 (SR; read-out: LC50): > 100 µM
- mean GI % ([2]; 10 µM single dose, all cell lines): 59%
- Mean Growth Percent ([2]; 1.00E-5 Molar, one dose mean graph): 41.08%
- Selectivity index ([2]; Breast Cancer subpanel): 1.00
- Selectivity index ([2]; CNS Cancer subpanel): 0.75
- Selectivity index ([2]; Colon Cancer subpanel): 1.25
- GI50 ([2]; read-out: Full panel MG-MID (GI50), five-dose): 3.1 µM
- GI50 ([2]; read-out: GI50 values range, five-dose, across cell lines except UACC-257, TK-10, HS 578 T): 1.17 to 8.41 µM
- GI50 ([2]; read-out: MG-MID (GI50), Breast Cancer subpanel): 3.09 µM
- GI50 ([2]; read-out: MG-MID (GI50), CNS Cancer subpanel): 4.08 µM
- GI50 ([2]; read-out: MG-MID (GI50), Colon Cancer subpanel): 2.47 µM
- GI50 ([2]; read-out: MG-MID (GI50), Leukaemia subpanel): 1.33 µM
- GI50 ([2]; read-out: MG-MID (GI50), Melanoma subpanel): 3.45 µM
- GI50 ([2]; read-out: MG-MID (GI50), NSCL Cancer subpanel): 3.22 µM
- GI50 ([2]; read-out: MG-MID (GI50), Ovarian Cancer subpanel): 3.24 µM
- GI50 ([2]; read-out: MG-MID (GI50), Prostate Cancer subpanel): 2.85 µM
- GI50 ([2]; read-out: MG-MID (GI50), Renal Cancer subpanel): 4.23 µM
- GI50 ([2]; read-out: sub-panel GI50 (MG-MID) range, five-dose): 1.33 to 4.23 µM
- Selectivity index ([2]; Leukaemia subpanel): 2.33
- Selectivity index ([2]; Melanoma subpanel): 0.89
- Selectivity index ([2]; NSCL Cancer subpanel): 0.96
- Selectivity index ([2]; Ovarian Cancer subpanel): 0.95
- Selectivity index ([2]; Prostate Cancer subpanel): 1.08
- Selectivity index ([2]; Renal Cancer subpanel): 0.73
- Log10GI50 _MID ([2]; five-dose mean graph): -5.59 Molar
- Log10LC50 _MID ([2]; five-dose mean graph): -4.12 Molar
- Log10TGI _MID ([2]; five-dose mean graph): -4.69 Molar
- TGI range ([2]; five-dose, against 22 cancer cell lines): 2.96 to 8.03 µM
- TGI interval ([2]; five-dose, remaining cancer cell lines): 10.6 to 96.6 µM
- selectivity ratios range ([2]; full-panel MG-MID / subpanel MG-MID): 0.73 to 2.33
- GI50 (SW-620; SW-620): 2970 nM
- CC50 (SW-620; SW-620, read-out: LC50): > 100 µM
- GI50 (UACC-62; UACC-62): 2240 nM
- CC50 (UACC-62; UACC-62, read-out: LC50): > 100 µM
- GI50 (MDA-MB-231/ATCC; MDA-MB-231): 1810 nM
- CC50 (MDA-MB-231/ATCC; MDA-MB-231, read-out: LC50): > 100 µM
- GI50 (OVCAR-5; OVCAR-5): 4.04 µM
- CC50 (OVCAR-5; OVCAR-5, read-out: LC50): > 100 µM
- GI50 (EKVX): 2360 nM
- CC50 (EKVX; read-out: LC50): > 100 µM
- GI50 (MOLT-4; MOLT-4, MOLT-4): 682 nM
- CC50 (MOLT-4; MOLT-4, read-out: LC50): > 100 µM
- GI50 (SF-539; SF-539): 2690 nM
- CC50 (SF-539; SF-539, read-out: LC50): > 100 µM
- GI50 (NCI-H23; NCI-H23): 3.13 µM
- CC50 (NCI-H23; NCI-H23, read-out: LC50): > 100 µM
- GI50 (KM12; KM12): 3.22 µM
- CC50 (KM12; KM12, read-out: LC50): > 100 µM
